# Measurements from article PMC8164773 (European Journal of Medicinal Chemistry, 2021).
# Key:
# SARS-CoV-2 = type: cell-based; conditions: read-out: EC50 +CP
# [1] = Solubility studies of bisulfite prodrugs in H2O; type: physicochemical; conditions: aqueous media, 25 °C
Compound,EC50 (SARS-CoV-2) [nM],increase in molar solubility compared to GC376 [1]
COc1cccc2[nH]c(C(=O)N[C@@H](CC3CC3)C(=O)N[C@H](C=O)C[C@@H]3CCNC3=O)cc12 [1k],270 ± 400,–
CC(C)C[C@H](NC(=O)OCc1ccccc1)C(=O)N[C@@H](C[C@@H]1CCNC1=O)C(O)S(=O)(=O)[O-].[K+] (some centres unmarked) [3a],–,approximately 30%
